Measured values published in patent US9340507B2, “Substituted 4-pyridones and their use as inhibitors of neutrophil elastase activity” (Boehringer Ingelheim International GmbH, priority 2012, dated 2016).

How the values were obtained:
[1] = target: Human neutrophil elastase (Homo sapiens (Human), UniProt P08246); test: Human Neutrophil Elastase Assay; assay type: biochemical; settings: substrate MeOSuc-Ala-Ala-Pro-Val-AMC 250 μM, pH 7.5, fluorescence
Protocol: Human Neutrophil Elastase Assay
All other materials were of the highest grade commercially available.
The following buffers were used: Compound buffer: 100 mM Tris, 500 mM NaCl, adjusted to pH 7.5; Assay buffer: 100 mM Tris, 500 mM NaCl, adjusted to pH 7.5, containing 0.01% BSA.
Assay conditions: Test compounds were prediluted in DMSO and subsequently in compound buffer (5% DMSO final). […] After inactivation of the enzyme, fluorescence intensities were measured at 380 nm excitation and 460 nm emission wavelengths.
Each plate contains wells with a high value control (DMSO+enzyme+substrate) and wells with a low value control (DMSO+inactivated enzyme+substrate). IC50 values were estimated using a sigmoidal concentration response curve with variable slope. Means of low values were taken as 0%, means of high values as 100%. IC50 values of selected compound in the Neutrophil Elastase assay: […]

[2] = Determination of aqueous solubility from DMSO stock solutions (kinetic solubility method); assay type: physicochemical; settings: McIlvaine buffer pH 6.8, 24 h shaking, 2.5% DMSO, range 0.001 to 0.125 mg/ml
Protocol: Determination of Aqueous Solubility from DMSO Stock Solutions (“Kinetic Solubility Method”)
The aqueous solubility of examples of this invention is determined by comparing the amount dissolved in buffer to the amount dissolved in an acetonitrile/water (1/1) solution. Starting from a 10 mM DMSO stock solution, aliquots are diluted with acetonitrile/water (1/1) and McIlvaine buffer pH 6.8, respectively. After 24 h of shaking, the liquid phase is filtered and analyzed by LC-UV. The amount dissolved in buffer is compared to the amount dissolved in the acetonitrile/water (1/1) solution. Solubility is measured from 0.001 to 0.125 mg/ml at a DMSO concentration of 2.5%.

Chain of Human neutrophil elastase (P08246 30-267): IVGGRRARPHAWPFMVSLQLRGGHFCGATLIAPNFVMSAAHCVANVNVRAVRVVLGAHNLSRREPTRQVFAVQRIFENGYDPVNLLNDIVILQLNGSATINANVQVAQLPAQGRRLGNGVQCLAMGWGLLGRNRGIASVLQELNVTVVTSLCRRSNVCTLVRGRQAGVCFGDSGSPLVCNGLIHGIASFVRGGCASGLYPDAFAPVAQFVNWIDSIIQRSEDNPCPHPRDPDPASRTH

Row | SMILES | IC50 [1] [nM] | aqueous solubility at pH 6.8 [2] [mg/mL]
1 | Cc1c(-c2cccc(C(F)(F)F)c2)c(=O)c(C(=O)NCc2ccc(S(C)(=O)=O)cn2)cn1C1CCC1 [Example 18.1, 1-Cyclobutyl-6-methyl-4-oxo-5-(3-trifluoromethyl-phenyl)-1,4-dihydro-pyridine-3-carboxylic acid (5-methanesulfonyl-pyridin-2-ylmethyl)-amide] | 32 | 
2 | CCC(CC)n1cc(C(=O)NCc2ccc(S(C)(=O)=O)cn2)c(=O)c(-c2cccc(C(F)(F)F)c2)c1C [Example 23.1, 1-(1-Ethyl-propyl)-6-methyl-4-oxo-5-(3-trifluoromethyl-phenyl)-1,4-dihydro-pyridine-3-carboxylic acid (5-methanesulfonyl-pyridin-2-ylmethyl)-amide] | 12 | 
3 | Cc1c(-c2cccc(C(F)(F)F)c2)c(=O)c(C(=O)NCc2ccc(S(C)(=O)=O)cc2)cn1C(C)C [Example 1.2, 1-isopropyl-6-methyl-4-oxo-5-(3-trifluoromethyl-phenyl)-1,4-dihydro-pyridine-3-carboxylic acid 4-methanesulfonyl-benzylamide] | 12 | 
4 | CC[C@@H](C)n1cc(C(=O)NCc2ccc(S(C)(=O)=O)cc2)c(=O)c(-c2cccc(C(F)F)c2)c1C [Example 11.1, (R)-1-sec-Butyl-5-(3-difluoromethyl-phenyl)-6-methyl-4-oxo-1,4-dihydro-pyridine-3-carboxylic acid 4-methanesulfonyl-benzylamide] | 8 | 
5 | Cc1c(-c2cccc(C(F)F)c2)c(=O)c(C(=O)NCc2ccc(S(C)(=O)=O)cc2)cn1C(C)C [Example 4.14] | 11 | 0.076
6 | Cc1c(-c2cccc(C(F)F)c2)c(=O)c(C(=O)NCc2ccc3c(c2)C=CS3(=O)=O)cn1C(C)C [Example 50, 5-(3-Difluoromethyl-phenyl)-1-isopropyl-6-methyl-4-oxo-1,4-dihydro-pyridine-3-carboxylic acid (1,1-dioxo-1H-1λ^6-benzo[b]thiophen-5-ylmethyl)-amide1] | 7.8 | 
7 | Cc1c(-c2cccc(C(F)F)c2)c(=O)c(C(=O)NCc2ccc(S(C)(=O)=O)s2)cn1C(C)C [Example 40, 5-(3-Difluoromethyl-phenyl)-1-isopropyl-6-methyl-4-oxo-1,4-dihydro-pyridine-3-carboxylic acid (5-methanesulfonyl-thiophen-2-ylmethyl)-amide] | 31 | 
8 | CC[C@H](C)n1cc(C(=O)NCc2ccc(S(C)(=O)=O)cc2)c(=O)c(-c2cccc(C(F)(F)F)c2)c1C [Example 12.1, (S)-1-sec-Butyl-6-methyl-4-oxo-5-(3-trifluoromethyl-phenyl)-1,4-dihydro-pyridine-3-carboxylic acid 4-methanesulfonyl-benzylamide] | 9 | 
9 | Cc1c(-c2cccc(C(F)F)c2)c(=O)c(C(=O)NCc2ccc(S(C)(=O)=O)c(F)c2)cn1C(C)C [Example 33, 5-(3-Difluoromethyl-phenyl)-1-isopropyl-6-methyl-4-oxo-1,4-dihydro-pyridine-3-carboxylic acid 3-fluoro-4-methanesulfonyl-benzylamide] | 16 | 
10 | Cc1c(-c2cccc(C(F)(F)F)c2)c(=O)c(C(=O)NCc2ccc([S+](C)[O-])cc2)cn1C(C)C (single isomer, unassigned) [Example 27.1A] | 5.4 | 0.081
11 | Cc1c(-c2cccc(C(F)F)c2)c(=O)c(C(=O)NCc2ccc(S(N)(=O)=O)cc2)cn1C(C)C [Example 4.10] | 42 | 
12 | Cc1c(-c2cccc(C(F)(F)F)c2)c(=O)c(C(=O)NCc2ccc([S+](C)[O-])cc2)cn1C(C)C (racemic) [Example 27.1, 1-Isopropyl-6-methyl-4-oxo-5-(3-trifluoromethyl-phenyl)-1,4-dihydro-pyridine-3-carboxylic acid 4-methanesulfinyl-benzylamide] | 9 | 
13 | CC[C@H](C)n1cc(C(=O)NCc2ccc(S(C)(=O)=O)cn2)c(=O)c(-c2cccc(C(F)F)c2)c1C [Example 20.2, (S)-1-sec-Butyl-5-(3-difluoromethyl-phenyl)-6-methyl-4-oxo-1,4-dihydro-pyridine-3-carboxylic acid (5-methanesulfonyl-pyridin-2-ylmethyl)-amide] | 11 | 
14 | CC[C@H](C)n1cc(C(=O)NCc2ccc(S(C)(=O)=O)cc2)c(=O)c(-c2cccc(C(F)F)c2)c1C [Example 12.2, (S)-1-sec-Butyl-5-(3-difluoromethyl-phenyl)-6-methyl-4-oxo-1,4-dihydro-pyridine-3-carboxylic acid 4-methanesulfonyl-benzylamide] | 12 | 
15 | CCCn1cc(C(=O)NCc2ccc(S(C)(=O)=O)cn2)c(=O)c(-c2cccc(C(F)(F)F)c2)c1C [Example 2.2] | 20 | 
16 | Cc1c(-c2cccc(C(F)F)c2)c(=O)c(C(=O)NCc2cccnn2)cn1C(C)C [Example 4.1] | 98 | 
17 | CCc1c(-c2cccc(C(F)(F)F)c2)c(=O)c(C(=O)NCc2ccc(S(=O)(=O)CC)cc2)cn1C(C)C [Example 30.2, 6-Ethyl-1-isopropyl-4-oxo-5-(3-trifluoromethyl-phenyl)-1,4-dihydro-pyridine-3-carboxylic acid 4-ethanesulfonyl-benzylamide] | 11 | 
18 | Cc1c(-c2cccc(C(F)F)c2)c(=O)c(C(=O)NCc2ccc(Cn3ccnc3)cc2)cn1C(C)C [Example 4.11] | 18 | 
19 | Cc1c(-c2cccc(C(F)(F)F)c2)c(=O)c(C(=O)NCc2ccc(S(C)(=O)=O)cc2)cn1C1CC1 [Example 6, 1-Cyclopropyl-6-methyl-4-oxo-5-(3-trifluoromethyl-phenyl)-1,4-dihydro-pyridine-3-carboxylic acid 4-methanesulfonyl-benzylamide] | 30 | 
20 | CC[C@@H](C)n1cc(C(=O)NCc2ccc(S(C)(=O)=O)cc2)c(=O)c(-c2ccnc(C(F)(F)F)c2)c1C [Example 11.2, (R)-1-sec-Butyl-2-methyl-4-oxo-2′-trifluoromethyl-1,4-dihydro-[3,4]bipyridinyl-5-carboxylic acid 4-methanesulfonyl-benzylamide] | 35 | 
21 | Cc1c(-c2ccnc(C(F)(F)F)c2)c(=O)c(C(=O)NCc2ccc([S+](C)[O-])cc2)cn1C(C)C (centres unmarked) [Example 27.2, 1-Isopropyl-2-methyl-4-oxo-2′-trifluoromethyl-1,4-dihydro-[3,4′]bipyridinyl-5-carboxylic acid 4-methanesulfinyl-benzylamide] | 51 | 
22 | Cc1c(-c2cccc(C(F)F)c2)c(=O)c(C(=O)NCc2ccc(S(C)(=O)=O)cc2)cn1C1CCCC1 [Example 9.2, 1-Cyclopentyl-5-(3-difluoromethyl-phenyl)-6-methyl-4-oxo-1,4-dihydro-pyridine-3-carboxylic acid 4-methanesulfonyl-benzylamide] | 18 | 
23 | Cc1c(-c2cccc(C(F)(F)F)c2)c(=O)c(C(=O)NCc2ccc(N3CCNC3=O)cc2)cn1C(C)C [Example 3.8] | 65 | 
24 | Cc1c(-c2cccc(C(F)(F)F)c2)c(=O)c(C(=O)NCc2ccc(S(C)(=O)=O)cc2)cn1CCF [Example 45, 1-(2-Fluoro-ethyl)-6-methyl-4-oxo-5-(3-trifluoromethyl-phenyl)-1,4-dihydro-pyridine-3-carboxylic acid 4-methanesulfonyl-benzylamide] | 34 | 
25 | Cc1c(-c2cccc(C(F)(F)F)c2)c(=O)c(C(=O)NCc2ccc(S(N)(=O)=O)cc2)cn1C(C)C [Example 3.7] | 40 | 
26 | Cc1c(-c2cccc(C(F)(F)F)c2)c(=O)c(C(=O)NCc2ccc(S(C)(=O)=O)cn2)cn1CC(C)C [Example 2.3] | 30 | 
27 | Cc1c(-c2cccc(C(F)(F)F)c2)c(=O)c(C(=O)NCc2ccc3c(c2)CCS3(=O)=O)cn1C(C)C [Example 29.1, 1-Isopropyl-6-methyl-4-oxo-5-(3-trifluoromethyl-phenyl)-1,4-dihydro-pyridine-3-carboxylic acid (1,1-dioxo-2,3-dihydro-1H-1λ^6-benzo[b]thiophen-5-ylmethyl)-amide] | 4 | 
28 | Cc1nnc(CNC(=O)c2cn(C3CCCC3)c(C)c(-c3cccc(C(F)(F)F)c3)c2=O)o1 [Example 8.1, 1-Cyclopentyl-6-methyl-4-oxo-5-(3-trifluoromethyl-phenyl)-1,4-dihydro-pyridine-3-carboxylic acid (5-methyl-[1,3,4]oxadiazol-2-ylmethyl)-amide] | 43 | 
29 | Cc1c(-c2cccc(C(F)(F)F)c2)c(=O)c(C(=O)NCc2ccc(C#N)cc2)cn1C(C)C [Example 3.5] | 64 | 
30 | CCn1cc(C(=O)NCc2ccc(S(C)(=O)=O)cc2)c(=O)c(-c2cccc(C(F)F)c2)c1C [Example 10, 5-(3-Difluoromethyl-phenyl)-1-ethyl-6-methyl-4-oxo-1,4-dihydro-pyridine-3-carboxylic acid 4-methanesulfonyl-benzylamide] | 29 | 
